Data on 13 molecules can be found in ChEMBL document CHEMBL5291721, “A preclinical secondary pharmacology resource illuminates target-adverse drug reaction associations of marketed drugs” (Nat Commun, 2023).

Assay [1] addresses T1, Adenosine receptor A3 (Homo sapiens, UniProt P0DMS8).
T1 sequence (P0DMS8 whole entry): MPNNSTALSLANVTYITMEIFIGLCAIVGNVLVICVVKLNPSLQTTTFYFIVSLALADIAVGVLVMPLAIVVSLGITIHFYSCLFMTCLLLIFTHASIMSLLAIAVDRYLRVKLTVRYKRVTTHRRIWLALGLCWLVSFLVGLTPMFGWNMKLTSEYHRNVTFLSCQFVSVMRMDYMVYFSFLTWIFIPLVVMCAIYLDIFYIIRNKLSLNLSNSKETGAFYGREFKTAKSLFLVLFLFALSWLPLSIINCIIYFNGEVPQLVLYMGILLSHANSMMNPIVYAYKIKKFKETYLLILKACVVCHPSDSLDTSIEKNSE

Assay [2] deals with T2, Muscarinic acetylcholine receptor M2 (Homo sapiens, UniProt P08172).
T2 sequence (P08172 whole entry): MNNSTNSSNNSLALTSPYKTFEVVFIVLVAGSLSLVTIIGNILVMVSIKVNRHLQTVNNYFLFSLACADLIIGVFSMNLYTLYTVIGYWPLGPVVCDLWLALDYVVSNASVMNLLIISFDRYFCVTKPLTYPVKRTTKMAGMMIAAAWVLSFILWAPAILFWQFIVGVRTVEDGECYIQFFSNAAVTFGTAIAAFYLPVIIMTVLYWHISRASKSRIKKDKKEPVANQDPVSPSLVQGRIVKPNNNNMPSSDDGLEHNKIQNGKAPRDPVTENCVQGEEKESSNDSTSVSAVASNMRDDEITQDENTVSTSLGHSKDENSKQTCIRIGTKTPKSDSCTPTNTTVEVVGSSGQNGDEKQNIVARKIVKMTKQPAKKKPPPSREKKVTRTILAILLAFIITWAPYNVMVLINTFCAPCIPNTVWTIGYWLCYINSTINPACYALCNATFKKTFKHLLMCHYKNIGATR

Assay [3] has as its target Cannabinoid receptor 1 (Homo sapiens, UniProt P21554). Type of assay: functional, cell-based.
In assay [4] the target is D(3) dopamine receptor (Homo sapiens, UniProt P35462).
For assay [5], the target named is T3, Progesterone receptor (Homo sapiens, UniProt P06401).
T3 sequence (P06401 whole entry): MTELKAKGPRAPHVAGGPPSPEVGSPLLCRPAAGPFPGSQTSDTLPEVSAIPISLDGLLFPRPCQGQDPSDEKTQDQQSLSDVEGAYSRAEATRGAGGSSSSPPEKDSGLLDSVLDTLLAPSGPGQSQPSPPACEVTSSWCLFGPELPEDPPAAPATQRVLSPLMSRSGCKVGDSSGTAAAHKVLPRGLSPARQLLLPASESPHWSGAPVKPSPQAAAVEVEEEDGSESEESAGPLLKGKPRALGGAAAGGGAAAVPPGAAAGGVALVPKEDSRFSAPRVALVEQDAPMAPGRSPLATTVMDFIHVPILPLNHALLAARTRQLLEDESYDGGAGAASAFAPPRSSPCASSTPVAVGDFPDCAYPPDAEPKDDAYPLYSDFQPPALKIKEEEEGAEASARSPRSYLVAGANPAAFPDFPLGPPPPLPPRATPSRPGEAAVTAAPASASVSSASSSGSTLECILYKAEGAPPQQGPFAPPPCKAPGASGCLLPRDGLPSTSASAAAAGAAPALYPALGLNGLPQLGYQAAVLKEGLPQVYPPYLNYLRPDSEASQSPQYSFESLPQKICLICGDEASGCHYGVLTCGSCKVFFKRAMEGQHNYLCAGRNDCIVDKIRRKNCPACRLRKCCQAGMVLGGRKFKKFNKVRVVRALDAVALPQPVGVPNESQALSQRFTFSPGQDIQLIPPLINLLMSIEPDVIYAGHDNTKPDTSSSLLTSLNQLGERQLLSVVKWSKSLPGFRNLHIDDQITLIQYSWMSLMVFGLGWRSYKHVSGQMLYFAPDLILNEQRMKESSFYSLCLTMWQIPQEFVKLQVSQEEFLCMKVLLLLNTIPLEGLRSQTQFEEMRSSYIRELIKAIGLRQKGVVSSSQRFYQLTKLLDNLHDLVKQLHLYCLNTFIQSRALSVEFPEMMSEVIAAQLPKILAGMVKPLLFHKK
The class given is functional.

Assay [6] addresses D(1A) dopamine receptor (Homo sapiens, UniProt P21728).
The target of assay [7] is Glutamate receptor ionotropic, NMDA 1 (Rattus norvegicus, UniProt P35439).
Assay [8] addresses T4, Neuropeptide Y receptor type 1 (Homo sapiens, UniProt P25929).
T4 sequence (P25929 whole entry): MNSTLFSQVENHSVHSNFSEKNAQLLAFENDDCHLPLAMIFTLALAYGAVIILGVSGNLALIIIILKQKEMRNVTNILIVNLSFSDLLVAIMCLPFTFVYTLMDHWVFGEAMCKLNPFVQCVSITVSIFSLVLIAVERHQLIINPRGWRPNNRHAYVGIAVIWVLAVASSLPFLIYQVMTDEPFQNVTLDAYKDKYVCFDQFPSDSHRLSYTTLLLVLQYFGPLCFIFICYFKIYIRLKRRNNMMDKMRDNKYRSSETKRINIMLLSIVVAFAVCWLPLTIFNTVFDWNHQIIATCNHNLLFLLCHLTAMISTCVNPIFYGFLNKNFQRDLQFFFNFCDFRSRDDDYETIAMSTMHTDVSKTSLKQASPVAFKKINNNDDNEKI

Bounds are passed on as bounds.
Note: assay procedure not described here.

D(3) dopamine receptor, sequence (P35462 whole entry): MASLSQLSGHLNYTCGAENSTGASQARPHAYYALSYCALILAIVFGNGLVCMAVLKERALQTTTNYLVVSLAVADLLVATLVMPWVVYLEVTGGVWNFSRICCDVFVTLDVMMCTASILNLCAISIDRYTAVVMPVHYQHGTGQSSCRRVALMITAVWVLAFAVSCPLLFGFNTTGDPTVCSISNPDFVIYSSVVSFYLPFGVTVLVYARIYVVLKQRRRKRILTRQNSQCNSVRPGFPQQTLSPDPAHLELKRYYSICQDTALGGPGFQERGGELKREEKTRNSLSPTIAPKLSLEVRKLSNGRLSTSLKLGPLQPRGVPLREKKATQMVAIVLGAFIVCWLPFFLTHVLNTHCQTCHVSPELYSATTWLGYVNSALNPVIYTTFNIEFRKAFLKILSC
D(1A) dopamine receptor, sequence (P21728 whole entry): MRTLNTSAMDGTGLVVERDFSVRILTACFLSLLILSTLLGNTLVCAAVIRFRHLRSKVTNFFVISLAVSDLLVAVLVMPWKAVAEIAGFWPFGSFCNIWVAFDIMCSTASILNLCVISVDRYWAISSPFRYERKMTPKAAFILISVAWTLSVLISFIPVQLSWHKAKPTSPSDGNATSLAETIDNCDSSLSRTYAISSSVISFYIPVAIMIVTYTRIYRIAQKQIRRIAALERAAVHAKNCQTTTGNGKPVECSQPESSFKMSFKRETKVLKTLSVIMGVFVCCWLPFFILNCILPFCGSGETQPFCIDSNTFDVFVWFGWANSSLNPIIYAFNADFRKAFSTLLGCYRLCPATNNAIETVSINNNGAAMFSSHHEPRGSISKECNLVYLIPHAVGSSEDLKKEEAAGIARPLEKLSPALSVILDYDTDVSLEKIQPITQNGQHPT
Cannabinoid receptor 1, sequence (P21554 whole entry): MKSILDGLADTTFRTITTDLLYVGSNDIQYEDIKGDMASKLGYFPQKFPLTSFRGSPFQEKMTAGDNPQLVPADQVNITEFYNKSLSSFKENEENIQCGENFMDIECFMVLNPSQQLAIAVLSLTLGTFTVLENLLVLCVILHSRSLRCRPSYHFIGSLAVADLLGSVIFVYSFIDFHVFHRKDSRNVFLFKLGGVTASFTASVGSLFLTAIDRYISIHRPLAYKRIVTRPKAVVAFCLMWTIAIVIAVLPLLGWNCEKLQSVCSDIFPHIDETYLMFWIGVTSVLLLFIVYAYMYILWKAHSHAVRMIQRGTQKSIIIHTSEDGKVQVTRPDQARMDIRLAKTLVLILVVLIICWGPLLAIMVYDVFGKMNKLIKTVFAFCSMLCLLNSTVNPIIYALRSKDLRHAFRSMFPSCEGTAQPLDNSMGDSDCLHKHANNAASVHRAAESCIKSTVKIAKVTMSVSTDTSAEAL

What is called AC50 is the concentration giving half of the maximal activity seen. Consider `CC(=O)Nc1ccc(O)cc1` [ACETAMINOPHEN], for which the AC50 in assay [1], in assay [2], in assay [3], in assay [4] and in assay [5] was over 30 µM each time.

For `C=CCc1ccccc1OCC(O)CNC(C)C` (configuration not stated) [ALPRENOLOL], the AC50 in assay [1] is over 0.3 µM; in assay [2], over 0.3 µM; in assay [3] it was over 30 µM; in assay [6], over 0.3 µM; in assay [4] it was over 0.3 µM; in assay [7], over 30 µM. In addition, the AC50 in assay [8] and in assay [5] was over 30 µM throughout.

As to `COC(c1ccccc1)(c1ccccc1)[C@H](Oc1nc(C)cc(C)n1)C(=O)O` [AMBRISENTAN], the AC50 in assay [1], in assay [2], in assay [6] and in assay [4] was over 30 µM throughout.

`CC(C)C[C@H]1C(=O)N2CCC[C@H]2[C@]2(O)O[C@](NC(=O)[C@@H]3C=C4c5cccc6[nH]c(Br)c(c56)C[C@H]4N(C)C3)(C(C)C)C(=O)N12` [BROMOCRIPTINE]: the AC50 in assay [1] is 1.92 µM; in assay [2] it was 29.1 µM; in assay [3], over 30 µM; in assay [6], 2.37 µM; in assay [7] it was over 10 µM; in assay [8] it was over 30 µM. In addition, the AC50 in assay [5] is over 30 µM.

Turning to `CN(C)CCn1nnnc1SCC1=C(C(=O)O)N2C(=O)[C@@H](NC(=O)Cc3csc(N)n3)[C@H]2SC1` [CEFOTIAM], the AC50 in assay [1], in assay [2], in assay [6] and in assay [4] was over 30 µM in each case.

For the molecule `C[C@]12CC[C@@H]3c4ccc(O)cc4CC[C@H]3[C@@H]1C[C@@H](O)[C@@H]2O` [ESTRIOL], the half-maximal activity concentration (AC50) in assay [1], in assay [2], in assay [6] and in assay [4] was over 30 µM throughout.

As for `Cc1cccc(Nc2ccccc2C(=O)O)c1C` [MEFENAMIC ACID], the half-maximal activity concentration (AC50) in assay [1] was over 30 µM; in assay [2] it was over 30 µM; in assay [6] it was over 30 µM; in assay [4] it was over 30 µM; in assay [7] it was over 10 µM; in assay [8] it was over 10 µM. In assay [5], the AC50 was over 10 µM.

Regarding `CC1(C)NC(=O)N(c2ccc([N+](=O)[O-])c(C(F)(F)F)c2)C1=O` [NILUTAMIDE], the AC50 in assay [2], in assay [6], in assay [4], in assay [7], in assay [8] and in assay [5] was over 30 µM in each case.

`CC(C)(S)[C@@H](N)C(=O)O` [PENICILLAMINE]: the AC50 in assay [1], in assay [2], in assay [6] and in assay [4] was over 30 µM in each case.

Regarding `COCCCN1CCC(NC(=O)c2cc(Cl)c(N)c3c2OCC3)CC1` [PRUCALOPRIDE], the half-maximal activity concentration (AC50) in assay [2], in assay [3], in assay [6], in assay [4] and in assay [5] was over 30 µM each time.

As for `CS(=O)(=O)c1ccc(C2=C(c3ccccc3)C(=O)OC2)cc1` [ROFECOXIB], the AC50 in assay [1] was 18.5 µM; in assay [2] it was over 30 µM; in assay [3], over 30 µM; in assay [6], over 30 µM; in assay [4], over 30 µM; in assay [7], over 10 µM. The AC50 in assay [8] was over 30 µM.

As for `Cc1cn([C@H]2C=C[C@@H](CO)O2)c(=O)[nH]c1=O` [STAVUDINE], the AC50 in assay [1] is over 30 µM; in assay [2], over 30 µM; in assay [3], over 30 µM; in assay [6], over 30 µM; in assay [4], over 30 µM; in assay [7], over 10 µM. Further, the concentration at half-maximal activity (AC50) in assay [8] is over 30 µM.

Take `CCOC(=O)[C@H](CCc1ccccc1)N[C@@H](C)C(=O)N1[C@H](C(=O)O)C[C@H]2CCCC[C@@H]21` [TRANDOLAPRIL]: the AC50 in assay [1], in assay [2], in assay [6] and in assay [4] was over 30 µM each time.
